# Test results from US20220280594A1, “APPLICATION OF POLYPEPTIDE OR DERIVATIVE THEREOF” (CHENGDU HUITAI BIOMEDICINE CO., LTD., priority 2019, published 2022).
# Ends that are not written are not given here. PEG = not defined here
# Assays:
# [1] = system: human breast cancer cells (MDA-MB-453); experiment: scratch assay, migration of MDA-MB-453 cells; format: cell-based; conditions: MDA-MB-453, 10 μM, 48 hours; control group 32.42 ± 2.04
# Experimental: (§1) In the scratch assay, the cell migration rate was negatively correlated with the inhibitory effect of the drug component on tumor cell migration ability. The cell migration inhibition experiment was described as follows: tumor cells were cultured in vitro, cells in logarithmic growth phase were collected and seeded evenly in a 24-well plate at a density of 1-2×10^5 cells/well; the cells were cultured in a cell incubator until a monolayer was formed; a scratch tool was used to make a “-” (straight) scratch on the monolayer of cells; the cells were washed 1-3 times with PBS, and a medium (with 2% fetal bovine serum) containing specific test components was added to the culture. Experimental grouping: PBS control group; polypeptide or derivative thereof treatment group (N1-N54), 10 μM. Three independent parallel wells were set up in each group, and the cells were cultured continuously in a cell incubator for 48 hours. […] At least 3 representative images for each well were taken. ImageJ software was used to count the migration distance of the cells, and the cell migration rate was calculated as: cell migration rate (%)=(width of original scratch−width of current scratch)/width of original scratch×100.
# This example was a scratch assay to evaluate the inhibitory effect of the polypeptide or derivative thereof (N1-N54) on the migration ability of human breast cancer cells (MDA-MB-453). The experimental method was as described in Example 2.
# [2] = system: human melanoma cells (A375); experiment: scratch assay, migration of A375 cells; format: cell-based; conditions: A375, 10 μM, 48 hours; control group 44.03 ± 6.21
# Experimental: as §1
# This example was a scratch assay to evaluate the inhibitory effect of the polypeptide or derivative thereof (N1-N54) on the migration ability of human melanoma cells (A375). The experimental method was as described in Example 2.
# [3] = system: human lung cancer cells (A549) subcutaneous xenograft; experiment: lung cancer subcutaneous xenograft animal model, intravenous injection; format: in vivo, mice (BALB/c-nu/nu); conditions: intravenous 60 mg/kg once every other day, 20 days; for Weight of tumor (g) (mean ± SD): control 2.53 ± 0.17; for Volume of tumor (mm^3) (mean ± SD): control 3373.26 ± 581.44
# Experimental: Experimental animals: 4-6 weeks old female immunodeficiency mice (BALB/c-nu/nu, Beijing Vital River Laboratory Animal Technology Co., Ltd.).
# Subcutaneous xenograft animal model. The number of cells inoculated subcutaneously vin mice was about 2×10^6/200 μL. When the volume of the subcutaneous tumor was greater than 100 mm^3, the mice were randomly divided into groups and subjected to treatment. When the mass volume of the tumors in model control group reached 2000 mm^3 or the animal dies, the treatment ended. The animals were dissected, the tumors were taken out, and the weight and volume of the tumors were measured. During the period of the entire experiment, the mice were observed and the body weight was measured every other day.
# The method used in the efficacy test on the lung cancer subcutaneous xenograft animal model was as described in Example 5. The lung cancer cells were the human lung cancer cells (A549), and the route of administration was intravenous injection. This example involved a total of 3 experiments to evaluate N1-N15, N16-N30, and N31-N54 respectively. The experimental procedure, route of administration, dosage and frequency of administration, and detection method were all consistent in the three experiments. The experimental groups were model control group and polypeptide or derivative thereof treatment groups (N1-N15, N16-N30, or N31-N54). The drug dosage of the N1-N54 treatment groups was 60 mg/kg, and the treatment time was 20 days.
Substance,"Migration rate (%) (mean ± SD, P) [1]","Migration rate (%) (mean ± SD, P) [2]",Weight of tumor (g) (mean ± SD) [3],Volume of tumor (mm^3) (mean ± SD) [3]
"N33: SEQ ID NO: 1 with deletion of positions 1-5, addition of one amino acid and PEG modification at the carboxyl terminal (LAKENVTQDAEDNC-{PEG}; reading uncertain)","10.76 ± 4.13,*** %","9.98 ± 3.11,*** %",0.57 ± 0.24 g,1699.23 ± 709.14 mm^3
"N34: SEQ ID NO: 1 with A15R, addition of one amino acid at the carboxyl terminal, PEG modification at the amino terminal ({PEG}-YRVRFLAKENVTQDREDNC; reading uncertain)","9.57 ± 3.68,*** %","15.11 ± 2.01,*** %",1.06 ± 0.15 g,1472.21 ± 914.38 mm^3
"N35: SEQ ID NO: 1 with A15R, addition of one amino acid and PEG modification at the carboxyl terminal (YRVRFLAKENVTQDREDNC-{PEG}; reading uncertain)","8.46 ± 2.77,*** %","19.51 ± 2.28,** %",0.75 ± 0.24 g,1097.54 ± 216.63 mm^3
N37: SEQ ID NO: 1 with addition of two amino acids to the carboxyl terminal and PEG modification at the amino terminal ({PEG}-YRVRFLAKENVTQDAEDNCT; reading uncertain),"15.13 ± 3.55,** %","14.48 ± 2.51,*** %",0.89 ± 0.39 g,915.97 ± 199.07 mm^3
N38: SEQ ID NO: 1 with one amino acid added at each terminal and PEG modification at the carboxyl terminal (FYRVRFLAKENVTQDAEDNC-{PEG}; reading uncertain),"12.46 ± 2.5,*** %","15.57 ± 3.65,*** %",0.71 ± 0.27 g,927.9 ± 205.31 mm^3
N39: SEQ ID NO: 1 with addition of two amino acids and PEG modification at the carboxyl terminal (YRVRFLAKENVTQDAEDNTC-{PEG}; reading uncertain),"11.02 ± 6.8,** %","9.21 ± 3.20,*** %",0.98 ± 0.3 g,918.84 ± 288.77 mm^3
"N40: SEQ ID NO: 1 with deletion of positions 1-5 and 15-18, PEG at the amino terminal, two amino acids added at the carboxyl terminal ({PEG}-LAKENVTQDRC; reading uncertain)","13.88 ± 6.51,** %","6.47 ± 1.39,*** %",0.98 ± 0.36 g,997.42 ± 267.79 mm^3
"N41: SEQ ID NO: 1 with addition of two amino acids at the amino terminal, deletion of position 18, PEG at the carboxyl terminal (FRYRVRFLAKENVTQDAED-{PEG}; reading uncertain)","11.5 ± 3.23,*** %","10.01 ± 2.07,*** %",0.84 ± 0.34 g,1075.33 ± 350.78 mm^3
"N42: SEQ ID NO: 1 with deletion of positions 1-5 and 15-18, PEG at the amino terminal, one amino acid added at the carboxyl terminal ({PEG}-LAKENVTQDR; reading uncertain)","14.12 ± 9.89,** %","8.92 ± 2.25,*** %",0.83 ± 0.31 g,1149.73 ± 346.36 mm^3
"N43: SEQ ID NO: 1 with addition of one amino acid at the amino terminal, deletion of position 18, PEG at the carboxyl terminal (RYRVRFLAKENVTQDAED-{PEG}; reading uncertain)","10.38 ± 6.04,** %","11.22 ± 1.74,*** %",0.85 ± 0.14 g,1218.7 ± 190.78 mm^3
"N45: SEQ ID NO: 1 with V11R, deletion of positions 1-5 and 15-18, PEG modification at the carboxyl terminal (LAKENRTQD-{PEG}; reading uncertain)","5.53 ± 2.87,*** %","18.79 ± 2.28,** %",0.97 ± 0.28 g,1204.87 ± 212.94 mm^3
"N47: SEQ ID NO: 1 with N18R, deletion of positions 1-2, one amino acid added and PEG at the carboxyl terminal (VRFLAKENVTQDAEDRC-{PEG}; reading uncertain)","14.66 ± 2.51,*** %","8.82 ± 2.49,*** %",0.75 ± 0.39 g,1748.82 ± 508.08 mm^3
"N48: SEQ ID NO: 1 with A7R, deletion of position 11 and position 18, PEG modification at the carboxyl terminal (YRVRFLRKENTQDAED-{PEG}; reading uncertain)","12.62 ± 3.25,** %","9.09 ± 2.23,*** %",0.71 ± 0.37 g,1558.12 ± 436.42 mm^3
"N49: SEQ ID NO: 1 with A7R, deletion of positions 1-2 and position 18, PEG modification at the carboxyl terminal (VRFLRKENVTQDAED-{PEG}; reading uncertain)","15.79 ± 4.48,** %","6.51 ± 1.53,*** %",0.73 ± 0.26 g,1513.42 ± 287.49 mm^3
